Legend:
Assay type in all cases: cell-based, human
[1] = system: HT-29; assay: MTT antiproliferation assay; details: for SI (selectivity index): HT-29, SI = IC50 (WI-38)/IC50 (cancer cell line); for IC50: Homo sapiens, HT-29, MTT, 24 h, mean ± SEM
Experimental: The antiproliferation and cytotoxicity were assessed using 3-(4,5-dimethylthiazol-2-yl)-2,5-diphenyltetrazolium bromide (MTT, Serva) colorimetric assay. To investigate the antiproliferation, all cell lines were seeded at a density of 20,000 cells per well in 96-well plates and allowed to adhere overnight. […] These concentrations were prepared by diluting the stock solutions with serum-free culture media. The negative control cells were those treated with 0.1% DMSO solvent alone. The treated cells were handled in reduced light and maintained under standard culture growth conditions for 24 h. After the incubation period, MTT powder was prepared as a stock solution (5 mg/mL) and 20 μL of the MTT working reagent (final concentration 0.5 mg/mL) was added to each well. This was followed by incubation with MTT reagent for 4 h in a humidified atmosphere (37 °C, 5% CO2) with subsequent addition of 150 μL of DMSO solubilizing solvent and incubation for 20 min. The absorbance of solubilized violet formazan crystals was measured at 540 nm with Biotek 800 TS microplate reader. IC50 was calculated as the concentration of retinoid that produced 50% cell growth inhibition. For cytotoxicity assessment, WI-38 normal human fibroblast cells were used for the calculation of SI which is the ratio of IC50 retinoid (WI-38)/IC50 retinoid (cancer cell line).

[2] = system: Cyt-C; assay: Western blotting in Caco-2 cells; details: Caco-2, IC50 dose, 24 h, normalized to β-actin
Experimental: (§1) The expression of Bax, Bcl-2, Cyt-C, cleaved cas-3 and p53 proteins in Caco-2 cells was determined using Western blot procedure according to the methods mentioned previously. […] Then, cells were lysed in 150 µL pre-cold lysis buffer [Tris-Base “10 mM”, NaCl “100 mM”, Ethylene glycol bis (2-aminoethyl) tetraacetic acid (EGTA) “20 mM”, ethylenediaminetetraacetic acid (EDTA) “25 mM”, 1% (v/v) NP-40, and 1% (v/v) Triton X-100; pH 7.4] immediately supplemented with 1:450 protease and phosphatase inhibitors cocktail (Sigma-Aldrich). Caco-2 cells were immediately collected by cell scraper, sonicated, and centrifuged at 12,000 rpm for 15 min. Total proteins in the produced supernatant were determined colorimetrically using the Pierce™ 660 nm Assay (Thermo Scientific, Rockford, IL, USA). Equal amounts (30 µg) of protein were mixed with sodium dodecyl sulfate (SDS)-loading buffer containing Tris-HCl, dithiothreitol (DTT), SDS, glycerol, and Bromophenol blue. The protein samples were then denatured by boiling for 5 min, allowed to cool on ice for 10 min and separated by SDS-polyacrylamide gel electrophoresis (Cleaver Scientific Ltd., Rugby, Warwickshire, UK), and transferred onto Polyvinylidene Difluoride (PVDF) membranes for 30 min using Trans-Blot® SD semi-dry transfer cell (Biorad). Membranes were then blocked with 5% (w/v) blotting-grade dry milk (Biorad) in Tris-buffered saline-Tween-20 (TBS-T), washed and incubated with antibodies against Bax, Bcl-2, cleaved caspase-3 (1:100–1:2000, Cell Signaling Technology), cytochrome c (1:500, Santa Cruz Biotechnology), p53 (1:1500, Abcam) and β-actin (1:2500, Sigma-Aldrich) for 16–17 h at 4 °C in a humidified chamber. The blots were washed, incubated at RT with matched horseradish peroxidase (HRP)-linked secondary antibodies (Dako, Denmark) for 1.5 h, and the bands were visualized with chemiluminescence Western Lightning ECL (Perkin Elmer, Waltham, MA) for 1 min in Chemi-Doc imager (Biorad, Hercules, CA, USA) and finally analyzed with Bio-Rad Image Lab software with normalization to β-actin.

[3] = system: p53; assay: Western blotting in Caco-2 cells; details: Caco-2, IC50 dose, 24 h, normalized to β-actin
Experimental: as §1

[4] = system: Caco-2 cells; assay: Isobologram analysis of retinoid + 5-FU combinations (MTT); details: Caco-2, combination with 5-FU; for CI (combination index): CI < 1 is synergy
From the text: This mathematical model allows the determination of CI (combination index) values based on the Equation (1):CI = d1/D1 + d2/D2 (1) where d1 and d2 are the doses of drug 1 and drug 2 that, when given in combination, produce a specific response. D1 and D2 are the doses of drug 1 and drug 2, that, when given individually, produce the same response. Also, CI < 1 is synergy, CI = 1 is additivity and CI > 1 is antagonism
DRI < 1 indicates unfavorable dose reduction and ineffective combination.

[5] = system: Cytochrome-C; assay: Immunocytochemistry of cytosolic Cyt-C in Caco-2 cells; details: Caco-2, IC50, 24 h, compared to 0.1% DMSO control
Experimental: Caco-2 cells were seeded onto coverslips at a density of 1 × 10^6 cells using 0.1 mg/mL Poly-L-Lysine (Sigma-Aldrich, St. Louis, MO, USA) for immunocytochemistry (ICC) analysis. After treatment with IC50 of retinoids, cells were fixed in formalin neutral buffer (FNB) solution. The fixed cells were permeabilized with 0.1% Triton-x 100 and then blocked in 1% bovine serum albumin (BSA, prepared in PBS containing 0.1% Tween 20) for 30 min. Then, cells were incubated with Alexa Fluor® 488-conjugated anti-cytochrome C antibody overnight. After incubation, nuclei of cells were stained with Hoechst 33,258 (Sigma-Aldrich, St. Louis, MO, USA, 1:500). The coverslips were mounted in anti-fading medium (0.1% p-phenylenediamine, dissolved in 90% glycerin/PBS) and cytochrome C protein expression was detected using Carl Zeiss LSM 710 confocal microscope.

Row | SMILES | SI (selectivity index) [1] | IC50 [1] [µM] | Cyt-C protein level [2] | p53 protein level [3] | DRI (dose reduction index) [4] | CI (combination index) [4] | cytosolic Cyt-C protein released (anti-Cyt-C fluorescence intensity) [5]
1 | CC1(C)CCC(C)(C)c2cc(C#Cc3cccc(C(=O)O)c3)ccc21 [EC19, 3-(5,5,8,8-tetramethyl-5,6,7,8-tetrahydronaphthalen-2-ylethynyl) benzoic acid] | <1 | > 100 | significantly increased | significantly increased | 4.5 ± 0.6 | 0.46 ± 0.06 | significant increase
2 | CC1(C)CCC(C)(C)c2cc(C#Cc3ccc(C(=O)O)cc3)ccc21 [EC23, 4-(5,5,8,8-tetramethyl-5,6,7,8-tetrahydronaphthalen-2-ylethynyl) benzoic acid] | <1 | > 100 |  |  | 7.5 ± 0.8 | 0.27 ± 0.03 | second rank
